US5621133A (priority 1995, dated 1997)
Counter-ions that a name gives are not always drawn.

Assays:
[1] = target: dopamine D-1 receptor (Rattus norvegicus, UniProt P18901); assay: biochemical; details: D-1 Ki, rat caudate, [125I]SCH-23982
Description: The compounds compete with the radiolabeled ligand for occupancy of the receptors and the molar potency of each compound was quantified.
The Ki values are inversely proportional to the affinity of the compound for the receptor.

[2] = system: dopamine D-1 receptor; details: for Intrinsic Activity (adenylate cyclase assay): dopamine = 100, goldfish retina or rat striatum; for EC50: read-out: EC50 (agonist activity in adenylate cyclase assay), tissue from goldfish retina or rat striatum
Description: In order to determine agonist activity, cell-free tissue homogenates are incubated in an ionic buffer solution containing ATP and the compound being evaluated. The tissue was obtained from either goldfish retina or rat striatum.

[3] = target: dopamine D-2 receptor (Rattus norvegicus, UniProt P61169); assay: biochemical; format: binding; details: rat caudate, [125I]-p-aminophenylethyl spiroperidol; read-out: D-2 Ki
dopamine D-2 receptor, sequence (P61169 whole entry): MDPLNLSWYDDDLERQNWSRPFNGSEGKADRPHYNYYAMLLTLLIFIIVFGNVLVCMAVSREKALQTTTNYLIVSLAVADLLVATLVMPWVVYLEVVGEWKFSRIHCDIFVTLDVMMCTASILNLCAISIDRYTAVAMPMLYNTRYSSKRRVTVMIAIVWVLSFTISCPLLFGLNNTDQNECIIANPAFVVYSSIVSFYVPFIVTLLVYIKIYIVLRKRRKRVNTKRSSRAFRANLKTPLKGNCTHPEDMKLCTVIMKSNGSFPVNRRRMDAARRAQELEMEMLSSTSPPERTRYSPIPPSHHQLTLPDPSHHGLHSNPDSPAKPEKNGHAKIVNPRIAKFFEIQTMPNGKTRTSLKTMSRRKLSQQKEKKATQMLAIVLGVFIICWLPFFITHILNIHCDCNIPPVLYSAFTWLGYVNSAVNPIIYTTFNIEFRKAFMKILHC
Description: Homogenized rat caudate was the source of the D-2 receptors. […] The molar affinity of the compound for the receptor binding site was calculated by the same method used for the D-1 receptor assay, assuming a competitive interaction between the compound and the radiolabeled ligand.

dopamine D-1 receptor (Rattus norvegicus, UniProt P18901), sequence (P18901 whole entry): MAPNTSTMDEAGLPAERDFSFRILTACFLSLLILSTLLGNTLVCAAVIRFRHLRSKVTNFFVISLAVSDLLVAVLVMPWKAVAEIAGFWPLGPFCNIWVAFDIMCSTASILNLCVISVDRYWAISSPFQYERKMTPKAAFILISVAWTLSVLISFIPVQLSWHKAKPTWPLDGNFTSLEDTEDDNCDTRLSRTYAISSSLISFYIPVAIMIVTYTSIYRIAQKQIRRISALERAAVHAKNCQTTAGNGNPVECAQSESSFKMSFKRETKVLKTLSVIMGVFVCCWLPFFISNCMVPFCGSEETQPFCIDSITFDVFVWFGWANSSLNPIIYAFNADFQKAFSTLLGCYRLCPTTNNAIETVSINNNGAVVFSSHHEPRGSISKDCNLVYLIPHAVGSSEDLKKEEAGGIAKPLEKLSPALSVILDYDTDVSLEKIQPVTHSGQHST

Row | Structure (SMILES) | Ki [1] [nM] | Intrinsic Activity (adenylate cyclase assay) [2] | EC50 [2] [nM] | Ki [3] [nM]
1 | Oc1ccc2c(c1O)C[C@@H](c1ccccc1)C[C@H]2[C@H]1CCCN1 (relative stereo) [Example 180, [1,3-cis]5,6-Dihydroxy-3-phenyl-1-(2'-pyrrolidinyl)-1,2,3,4-tetrahydronaphthalene Hydrobromide] | 1100 | 71 | 80 | 4700
2 | NC[C@@H]1S[C@H](c2ccccc2)Cc2c1ccc(O)c2O (relative stereo) [Example 186, [1,3-cis]1-Aminomethyl-3-phenyl-3,4-dihydro-5,6-dihydroxy-1H-2-benzothiopyran Hydrochloride] | 1900 | 95 | 1300 | 34000
3 | CNC[C@@H]1S[C@H](c2ccccc2)Cc2c1ccc(O)c2O (relative stereo) [Example 187, [1,3-cis]1-(N-Methyl)aminomethyl-3-phenyl-3,4-dihydro-5,6-dihydroxy-1H-2-benzothiopyran Hydrochloride] | 2500 | 70 | 1200 | 6400
4 | CN(C)C[C@@H]1O[C@H](C2(c3ccccc3)CCCCC2)Cc2c1ccc(O)c2O (relative stereo) [Example 229] | 260 | 34 | 330 | 3600
5 | CN(C)C[C@@H]1O[C@H](C2(C)CCCCC2)Cc2c1ccc(O)c2O (relative stereo) [Example 230] | 26 | 59 | 120 | > 10000
6 | CCCC(=O)Oc1ccc2c(c1OC(=O)CCC)CC(c1ccccc1)C=C2CN (centres unmarked) [Example 17] | 800 | 42 | 2800 | > 10000
7 | CC(C)C(=O)Oc1ccc2c(c1OC(=O)C(C)C)CC(c1ccccc1)C=C2CN (centres unmarked) [Example 18] | 1300 | 46 | 1500 | > 10000
8 | CCC(=O)Oc1ccc2c(c1OC(=O)CC)CC(c1ccccc1)C=C2CN (centres unmarked) [Example 20] | 1900 | 80 | 500 | > 10000
9 | COC(=O)Oc1ccc2c(c1OC(=O)OC)CC(c1ccccc1)C=C2CN (centres unmarked) [Example 23] | 500 | 65 | 1100 | > 10000
10 | NCCC(=O)Oc1ccc2c(c1OC(=O)CCN)CC(c1ccccc1)C=C2CN (centres unmarked) [Example 27] | > 10000 |  | 200 | 6600
11 | CCOC(=O)Oc1ccc2c(c1OC(=O)OCC)CC(c1ccccc1)C=C2CN (centres unmarked) [Example 29] | 6000 | 54 | 1000 | > 10000
12 | NCC1=CC(c2cccc(O)c2)Cc2c1ccc(O)c2O (centres unmarked) [Example 38] | 120 | 91 | 33 | 30000
13 | NCC1=CC(c2ccc(O)cc2)Cc2c1ccc(O)c2O (centres unmarked) [Example 39] | 1400 | 84 | 50 | > 10000
14 | NCC1=CC(c2ccc3ccccc3c2)Cc2c1ccc(O)c2O (centres unmarked) [Example 40] | 5000 | 86 | 1100 | 27000
15 | NCC1=CC(c2cccc3ccccc23)Cc2c1ccc(O)c2O (centres unmarked) [Example 41] | 700 | 81 | 1800 | 2500
16 | Cl.NCc1cc(-c2ccccc2)cc2c(O)c(O)ccc12 [Example 46, 1-Aminomethyl-5,6-dihydroxy-3-phenylnaphthalene Hydrochloride] | 1700 | 69 | 220 | > 10000
17 | NCC1OC2(CCCCC2)Cc2c1ccc(O)c2O (centres unmarked) [Example 52] | 900 | 65 | 71 | 6200
18 | CCC(C)C(C)[C@@H]1Cc2c(ccc(O)c2O)[C@H](CN)O1 (some centres unmarked) [Example 72] | 15 | 80 | 170 | 8200
19 | CC(C)=CCCC(C)[C@@H]1Cc2c(ccc(O)c2O)[C@H](CN)O1 (some centres unmarked) [Example 74] | 100 | 105 | 840 | 2000
20 | NCC1OC2(CCCCCCC2)Cc2c1ccc(O)c2O (centres unmarked) [Example 94] | 84 | 110 | 71 | > 10000
21 | NCC1OC2(CCOCC2)Cc2c1ccc(O)c2O (centres unmarked) [Example 95] | 520 | 104 | 100 | > 10000
22 | Oc1ccc2c(c1O)C[C@@H](c1ccccc1)O[C@H]2[C@H]1CCCN1 [Example 123] | 8200 | 61 | 770 | > 10000
23 | Oc1ccc2c(c1O)C[C@H](c1ccccc1)O[C@@H]2[C@H]1CCCN1 [Example 127] | 1300 | 55 | 520 | > 10000

Row | Structure (SMILES) | Ki [1] [nM] | Intrinsic Activity (adenylate cyclase assay) [2] | EC50 [2] [nM] | Ki [3] [nM]
24 | CCNC[C@@H]1O[C@H](C(C)(C)C)Cc2c1ccc(O)c2O [Example 128] | 570 | 108 | 87 | 23000
25 | C=CCNC[C@@H]1O[C@H](C(C)(C)C)Cc2c1ccc(O)c2O [Example 129] | 2100 | 97 | 1000 | 3100
26 | CNC[C@@H]1O[C@H](C23CC4CC(CC(C4)C2)C3)Cc2c1ccc(O)c2O [Example 134] | 35 | 81 | 4 | 1000
27 | CNCC1OC2(CCCCCC2)Cc2c1ccc(O)c2O (centres unmarked) [Example 141] | 120 | 97 | 80 | 2600
28 | CNCC1OC2(CCCCCCC2)Cc2c1ccc(O)c2O (centres unmarked) [Example 142] | 190 | 71 | 87 | > 10000
29 | CNCC1OC2(CCOCC2)Cc2c1ccc(O)c2O (centres unmarked) [Example 143] | 1200 | 94 | 1100 | > 10000
30 | CNCC1=CC(c2ccccc2)Cc2c1ccc(O)c2O (centres unmarked) [Example 149, 5,6-Dihydroxy-1-(N-methyl)aminomethyl-3-phenyl-3,4,-dihydronaphthalene] | 460 | 78 | 36 | 19000
31 | O=CO.Oc1ccc2c(c1O)CC(c1ccccc1)C1=C2CNC1 (centres unmarked) [Example 184, 6,7-Dihydroxy-4-phenyl-2,3,4,5-tetrahydro-1H-benz[e]isoindole Formic Acid Salt] | 70 | 47 | 22 | > 10000
32 | NCC1=CC2(CCCCC2)Cc2c1ccc(O)c2O [Example 189] | 3300 | 65 | 1500 | > 10000
33 | CC(C)(C)C1C=C(CN)c2ccc(O)c(O)c2C1 (centres unmarked) [Example 190] | 330 | 92 | 110 | 6300
34 | NCC1=CC2(CCCCCCC2)Cc2c1ccc(O)c2O [Example 191] | 1100 | 58 | 1500 | > 10000
35 | NCC1CC2(CCCCCC2)Cc2c1ccc(O)c2O (centres unmarked) [Example 193] | 650 | 63 | 680 | 3200
36 | NCC1CC2(CCCCC2)Cc2c1ccc(O)c2O (centres unmarked) [Example 194] | 4000 | 82 | 58 | > 10000
37 | NCC1CC2(CCCC2)Cc2c1ccc(O)c2O (centres unmarked) [Example 196] | 6000 | 80 | 1100 | > 10000
38 | NCC1CC2(CCCCCCC2)Cc2c1ccc(O)c2O (centres unmarked) [Example 197] | 880 | 56 | 180 | > 5000
39 | CC(C)(C)C1Cc2c(ccc(O)c2O)C2=C1CCNC2 (centres unmarked) [Example 203] | 1000 | 0 | > 10000 | 4300
40 | Oc1ccc2c(c1O)CC1(CCCCCC1)C1=C2CNCC1 [Example 206] | 26 | 79 | 68 | 1600
41 | Oc1ccc2c(c1O)CC(CC1CCCC1)C1=C2CNCC1 (centres unmarked) [Example 209] | 490 | 25 |  | 2800
42 | CN1CCC2=C(C1)c1ccc(O)c(O)c1CC21CCCC1 [Example 211] | 580 | 38 | 63 | > 10000
43 | CN1CCC2=C(C1)c1ccc(O)c(O)c1CC21CCCCC1 [Example 212] | 630 | 43 | 480 | 700
44 | CNCC1OC2(CCCCCCCC2)Cc2c1ccc(O)c2O (centres unmarked) [Example 224] | 230 | 64 | 240 | 2300
45 | NCC1=CC2(CCCCCCCC2)Cc2c1ccc(O)c2O [Example 232] | 3800 | 49 | 1700 | > 10000
46 | NCC1=CC2(CCCCCCCCC2)Cc2c1ccc(O)c2O [Example 234] | 3900 | 53 | 2700 | > 10000
